What was measured:
[1] = system: mouse orthologue of GPR35; design: method as in PMID 22967846, PMID 30601679; details: cited from earlier work
human isoforms of GPR35 = molecular target: human isoforms of GPR35; design: method as in PMID 23888932; details: read-out: Ki from competition studies against a [3H]radiolabeled agonist; cited from earlier work
HepG2 cells [2] = experiment: Label-free cellular impedance assay (xCELLigence) in HepG2 cells; assay type: cell-based, human; details: HepG2 cells; for impedance response of antagonist added alone: 1 × 10^–5 M; for impedance response to lodoxamide on co-addition of antagonist: antagonist 1 × 10^–5 M, lodoxamide 1 × 10^–8 M
Experimental: (§1) HepG2 cells were seeded onto xCELLigence E plates (2 × 10^4 cells/well) and incubated for 24 h at 37 °C. To evaluate GPR35 activation and its downstream G protein signaling, HepG2 cells or primary mouse hepatocytes were exposed to GPR35 antagonists or G protein inhibitors 1 h (overnight for Pertussis toxin) prior to GPR35 agonist stimulation. After the addition of GPR35 agonist or vehicle control, the impedance (represented as “cell index”) was recorded every 30 s over a 2 h period using xCELLigence RTCA (Agilent). Each experiment was repeated at least three times.

[3] = system: primary mouse hepatocytes; design: method as in Nam et al. 37; details: against 1 × 10^–6 M lodoxamide; ref Nam et al. 37; read-out: IC50 to block mouse GPR35 in primary hepatocytes; cited from earlier work
HepG2 cells [4] = experiment: Oil Red O staining of LXR (T0901317)-induced lipid accumulation in HepG2 cells; assay type: cell-based, human; details: T0901317/lodoxamide, concentration-dependent
Experimental: Human hepatocellular carcinoma HepG2 cells were grown in Minimum Essential Medium (MEM) supplemented with 10% fetal bovine serum (FBS), 2 mM L-glutamine, 1× non-essential amino acid, 1 mM sodium pyruvate, and 1× penicillin/streptomycin. Materials for cell culture were all from Sigma-Aldrich (St. Louis, MO) or Thermo Fisher Scientific (Waltham, MA). Cells were incubated in a humidified CO2 incubator at 37 °C. […] Cells were seeded onto a 12-well plate (1 × 10^5 cells/well) for 24 h prior to drug treatment. […] Lipid accumulation was measured by Oil Red O staining.

[5] = system: hepatocytes from hGPR35a-HA-expressing mice; experiment: Oil Red O lipid accumulation in hepatocytes from hGPR35a-HA-expressing mice; assay type: cell-based, mouse; details: hepatocytes from hGPR35a-HA-expressing mice
Experimental: All mice were bred as WT or homozygous onto a C57BL/6N background. Animals were cared for in accordance with national guidelines on animal experimentation. All animal experiments were conducted under a home office license held by the authors. WT, humanized GPR35a, or KO male mice at 3–4 months of age were used in this study. These mice were fed ad libitum with a standard mouse chow diet. Briefly, mouse primary hepatocytes were isolated using a two-step collagenase perfusion technique.[45] Twelve-well plates or xCELLigence E plates were coated with rat tail collagen I solution (Thermo Fisher Scientific) overnight at 37 °C and washed with PBS. Isolated primary hepatocytes were seeded onto 12-well plates (8 × 10^4 cells/well) or xCELLigence E plates (2 × 10^4 cells/well) in Wiliam’s E medium (Thermo Fisher Scientific) supplemented with 10% fetal bovine serum (FBS) and 1× penicillin/streptomycin. Cells were maintained for 7 days with a fresh medium change every other day. […] Human GPR35 activation was examined using xCELLigence RTCA assay. To access the impact of GPR35 agonists on the lipid accumulation, WT and humanized GPR35 hepatocytes were incubated with T0901317 and/or GPR35 agonists/antagonists, as indicated (in DMEM medium containing 5% FBS and 1.5% BSA) for 48 h. Alternatively, GPR35 KO hepatocytes were incubated with drugs, as indicated for 5 days. In the T0901317 pretreatment model, human GPR35 hepatocytes were stimulated with T0901317 for 2 days and then further treated with lodoxamide for a further 3 days. After each drug treatment, hepatocytes were stained with Oil Red O and quantified as described. Each experiment was repeated at least three times.
Lipid accumulation was measured by Oil Red O staining. A working solution of Oil Red O was prepared, as described with modification.[46] After drug treatment, cells were washed with PBS and fixed with formalin solution for 1 h at 4 °C. Then, cells were stained with Oil Red O working solution for 10 min at room temperature. After PBS washing, Oil Red O was extracted from cells using 150 μl of isopropanol and OD510 nm measured. After the lipid extraction, cells were further soaked in PBS overnight at 4 °C. These cells were then stained with Hoechst 33342 (1 μg/mL) and the fluorescence intensity of Hoechst (represents the DNA content in cells) was measured using a CLARIOstar plate reader (BMG LABTECH). Oil Red O accumulation was corrected for differences in DNA content and expressed as relative absorbency, taking the control condition (treated with vehicle only) as 1.

[6] = system: clone 27 HepG2 cells transfected with human GPR35a; experiment: Cellular impedance in clone 27 cells transiently transfected with human GPR35a; assay type: cell-based; details: ML-145 1 × 10^–5 M, lodoxamide 1 × 10^–8 M
Experimental: Briefly, CRISPR KO cells were transiently transfected 24 h with the human GPR35a expression vector using LipofectAMINE 3000 reagent, according to the manufacturer’s instructions. […] Alternatively, after 24 h transfection, cells were seeded onto a 12-well plate (1 × 10^5 cells/well) for 24 h at 37 °C. Then, cells were incubated with T0901317 and/or GPR35 agonists (in MEM containing 5% FBS) for 72 h. After the drug treatment, cells were stained with Oil Red O to examine the levels of lipid accumulation. Each experiment was repeated at least three times.
as §1

[7] = system: hepatocytes from hGPR35a-HA-expressing mice; experiment: Label-free cellular impedance assay in hepatocytes from hGPR35a-HA-expressing mice; assay type: cell-based, mouse

| Structure (SMILES) | affinity at the mouse orthologue of GPR35 [1] | Ki (human isoforms of GPR35) [nM] | impedance response of antagonist added alone (HepG2 cells [2]) | impedance response to lodoxamide on co-addition of antagonist (HepG2 cells [2]) | IC50 [3] [nM] | antagonist co-addition: effect of lodoxamide on LXR-induced lipid accumulation (HepG2 cells [4]) | effect of antagonist added alone on lipid content [5] | effect of antagonist on lodoxamide suppression of lipid accumulation ([5]; T0901317/lodoxamide 5 × 10^–6 M) | effect of co-addition of antagonist on the lodoxamide impedance signal in clone 27 cells transfected with human GPR35a [6] | effect of co-addition of antagonist on the lodoxamide impedance response ([7]; ML-145 1 × 10^–5 M, lodoxamide 1 × 10^–7 M) | impedance effect of antagonist alone versus DMSO-containing vehicle ([7]; hepatocytes from hGPR35a-HA-expressing mice) |
| --- | --- | --- | --- | --- | --- | --- | --- | --- | --- | --- | --- |
| COC(=O)c1cnn(-c2ccc(F)cc2F)c1C=NNC(=S)NC(C)(C)C [CID-2745687, 1-(2,4-difluorophenyl)-5-[[2-[[(1,1-dimethylehyl)amino]thioxomethyl]hydrazinylidene]methyl]-1H-pyrazole-4-carboxylic acid methyl ester] | neither of these ligands has measurable affinity | 42 | neither antagonist generated a response distinct from the vehicle | absent | 98 | prevented the effect of lodoxamide on lipid accumulation | – | – | – | – | – |
| CC(/C=C1\SC(=S)N(CCCC(=O)Nc2ccc(C(=O)O)c(O)c2)C1=O)=C\c1ccccc1 [ML-145, 2-hydroxy-4-[4-(5Z)-5-[(E)-2-methyl-3-phenylprop-2-enylidene]-4-oxo-2-sulfanylidene-1,3-thiazolidin-3-yl]butanoylaminobenzoic acid] | neither of these ligands has measurable affinity | 8.7 | neither antagonist generated a response distinct from the vehicle | absent | – | prevented the effect of lodoxamide on lipid accumulation | without effect when added alone | blocked the effect of lodoxamide in a concentration-dependent manner | blocked | prevented | no separate effect |

Source: publication PMC8669712, “G Protein-Coupled Receptor GPR35 Suppresses Lipid Accumulation in Hepatocytes” (ACS Pharmacology & Translational Science, 2021)
